# In patent publication US5486512A, “Quinazoline derivatives as acetylcholinesterase inhibitors” (priority 1994, dated 1996):
# pIC50: −log10 of the molar value. Where two headings read alike, the source gives them in different places.
# Tests used:
# Assay type in all cases: biochemical
# [1] = biological target: T1, Human Red Blood Cell AChE (Homo sapiens, UniProt P22303); assay: Inhibition of human red blood cell acetylcholinesterase in vitro (radiometric assay of Johnson and Russell, modified)
# T1 construct: from tissue; host or cells: human red blood cells
# T1 sequence (P22303 other isoform, or with tags, fused parts or gaps): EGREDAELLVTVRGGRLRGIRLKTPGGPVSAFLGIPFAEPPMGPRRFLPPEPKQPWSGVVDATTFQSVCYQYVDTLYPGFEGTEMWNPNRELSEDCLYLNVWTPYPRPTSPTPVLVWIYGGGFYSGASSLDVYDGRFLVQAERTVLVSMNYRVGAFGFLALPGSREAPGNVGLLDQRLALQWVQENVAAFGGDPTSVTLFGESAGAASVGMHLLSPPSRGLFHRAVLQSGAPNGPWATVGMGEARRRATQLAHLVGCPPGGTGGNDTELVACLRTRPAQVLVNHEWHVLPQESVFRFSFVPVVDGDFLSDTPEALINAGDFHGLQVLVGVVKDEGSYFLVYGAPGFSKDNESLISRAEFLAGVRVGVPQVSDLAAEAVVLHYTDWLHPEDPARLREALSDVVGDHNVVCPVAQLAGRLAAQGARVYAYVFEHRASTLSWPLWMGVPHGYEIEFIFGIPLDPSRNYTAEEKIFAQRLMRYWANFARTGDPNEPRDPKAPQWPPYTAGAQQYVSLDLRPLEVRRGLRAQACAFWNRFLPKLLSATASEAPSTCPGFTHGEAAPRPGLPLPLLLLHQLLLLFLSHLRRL
# Source text: (§1) The in vitro data was obtained according to the radiometric assay of C. D. Johnson and R. L. Russell described in Anal. Biochem., 64:229-238 (1975) and modified as described by M. R. Emmerling and H. M. Sobkowicz in Hearings Research, 32:137-146 (1988); the rat brain homogenate acetylcholinesterase inhibition data were obtained by the Ellman assay, described by G. L. Ellman, D. Courtney, V. Andres, and R. M. Feathersome, described in Biochem. Pharmacol. 7:88-95 (1961), and modified as described by M. J. Marks, D. M. Patinkin, L. D. Artman, J. B. Busch, and A. C. Collins in Pharmacol. Biochem. and Behav.15:271-279 (1981), which references are incorporated herein.
# Electric Eel AChE = Electric Eel AChE (Electrophorus electricus, UniProt O42275); assay: Inhibition of electric eel acetylcholinesterase in vitro
# Electric Eel AChE, sequence (O42275 24-633): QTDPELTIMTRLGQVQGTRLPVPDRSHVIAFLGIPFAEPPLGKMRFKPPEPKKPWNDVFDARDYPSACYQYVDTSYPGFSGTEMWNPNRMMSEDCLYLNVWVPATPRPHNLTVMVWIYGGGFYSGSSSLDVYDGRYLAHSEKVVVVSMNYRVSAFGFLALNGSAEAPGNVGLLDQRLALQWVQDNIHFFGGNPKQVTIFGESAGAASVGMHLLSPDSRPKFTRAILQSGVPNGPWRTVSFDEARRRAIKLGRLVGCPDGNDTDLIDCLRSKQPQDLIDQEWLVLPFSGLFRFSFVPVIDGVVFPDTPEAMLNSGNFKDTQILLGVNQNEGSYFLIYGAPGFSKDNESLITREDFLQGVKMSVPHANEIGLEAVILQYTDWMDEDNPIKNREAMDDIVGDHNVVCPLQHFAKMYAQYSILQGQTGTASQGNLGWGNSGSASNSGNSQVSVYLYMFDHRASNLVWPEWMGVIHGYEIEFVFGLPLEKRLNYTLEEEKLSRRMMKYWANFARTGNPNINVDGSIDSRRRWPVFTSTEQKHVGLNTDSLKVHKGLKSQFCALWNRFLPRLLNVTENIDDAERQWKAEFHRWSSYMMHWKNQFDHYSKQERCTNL
# Source text: as §1
# [2] = biological target: T2, Rat Brain Homogenate AChE (Rattus norvegicus, UniProt P37136); assay: Inhibition of rat brain homogenate acetylcholinesterase (Ellman assay, modified); settings: Table I
# T2 construct: rat brain homogenate acetylcholinesterase; from tissue; host or cells: rat brain homogenate
# T2 sequence (P37136 32-614): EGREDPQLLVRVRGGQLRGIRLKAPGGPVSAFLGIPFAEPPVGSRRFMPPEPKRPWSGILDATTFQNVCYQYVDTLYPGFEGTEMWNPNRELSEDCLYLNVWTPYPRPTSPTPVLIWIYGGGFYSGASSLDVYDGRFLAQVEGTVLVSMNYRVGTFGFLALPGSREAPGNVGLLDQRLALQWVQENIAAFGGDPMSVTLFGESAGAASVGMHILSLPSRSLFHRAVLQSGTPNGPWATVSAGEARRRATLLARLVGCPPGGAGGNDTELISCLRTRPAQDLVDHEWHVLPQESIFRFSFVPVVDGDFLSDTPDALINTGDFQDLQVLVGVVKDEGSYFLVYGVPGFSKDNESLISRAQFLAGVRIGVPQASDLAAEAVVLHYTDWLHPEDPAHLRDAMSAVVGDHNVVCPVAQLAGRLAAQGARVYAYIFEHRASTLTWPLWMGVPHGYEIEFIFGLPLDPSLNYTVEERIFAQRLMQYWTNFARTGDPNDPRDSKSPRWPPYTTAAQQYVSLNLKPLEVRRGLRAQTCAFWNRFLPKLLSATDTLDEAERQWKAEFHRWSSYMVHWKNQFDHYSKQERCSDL
# Source text: as §1
# [3] = Table II, human red blood cell AChE, read-out: IC50 Human AChE
# [4] = Table III, electric eel AChE, read-out: IC50 Eel AChE
# [5] = Table I, read-out: Inhibition of Acetylcholinesterase, Human Red Blood Cell AChE
# [6] = Table I, read-out: Inhibition of Acetylcholinesterase, Electric Eel AChE
smiles,measurement,setting,value
Clc1cc(Cl)c2c(c1)N=C1C3CC4CC(C3)CC(C4)N1C2,pIC50,[1]; [3],7.22
Clc1cc(Cl)c2c(c1)N=C1C3CCC(C3)N1C2 (stereo not drawn),pIC50,[1]; [3],7.30
Clc1cc(Cl)c2c(c1)N=C1CCC(c3ccccc3)(c3ccccc3)CN1C2,pIC50,[1]; [3],7.20
CC1(C)CC2=Nc3cc(Cl)cc(Cl)c3CN2CC(C)(C)C1,pIC50,[1]; [3],5.70
Clc1cc(Cl)c2c(c1)N=C1C3CCCC(C3)N1C2 (stereo not drawn),pIC50,[1]; [3],6.00
Clc1cc(Cl)c2c(c1)N=C1CCCN1C2,pIC50,[1]; [3],6.70
Clc1cc(Cl)c2c(c1)N=C1CCCCN1C2,pIC50,[1]; [3],7.22
O=c1c2c(Cl)cc(Cl)cc2nc2n1CCCCC2,pIC50,[1]; [3],4.20
c1ccc2c(c1)CN1CCCC1=N2,pIC50,Electric Eel AChE; [4],5.80
C1=CC2=Nc3ccccc3CN2C=C1,pIC50,Electric Eel AChE; [4],5.80
N=c1c2ccccc2nc2n1CCCC2,pIC50,Electric Eel AChE; [4],6.00
N=c1c2ccccc2nc2n1CCCCC2,pIC50,Electric Eel AChE; [4],5.70
FC(F)(F)c1ccc2c(c1)N=C1CCCCCN1C2,pIC50,Electric Eel AChE; [4],6.00
c1ccc(C2(c3ccccc3)CCC3=Nc4ccccc4CN3C2)cc1,pIC50,Electric Eel AChE; [4],6.43
c1ccc2c(c1)CN1CCCCCCC1=N2,pIC50,Electric Eel AChE; [4],5.37
c1ccc2c(c1)CN1CCCCCCCC1=N2,pIC50,Electric Eel AChE; [4],5.40
c1ccc(C2CC3=Nc4ccccc4CN3C2)cc1 (stereo not drawn),pIC50,Electric Eel AChE; [4],5.51
Clc1ccc2c(c1)N=C1CC3CCC(C3)N1C2 (racemic),pIC50,[1]; [3],6.04
"Clc1ccc2c(c1Cl)CN1CCCCCC1=N2 [1,2-DiCl, H2, 1,2-dichloro-6,7,8,9,10,12-hexahydroazepino[2,1-b]quinazoline]",pIC50,[1]; [5],5.50
"Cc1c(Cl)cc2c(c1Cl)CN1CCCCCC1=N2 [1,3-DiCl, 2-Me, H2, 1,3-dichloro-2-methyl-6,7,8,9,10,12-hexahydroazepino[2,1-b]quinazoline]",pIC50,[1]; [5],6.00
"Clc1cc(Cl)c2c(c1)N=C1CCCCCN1C2 [1,3-DiCl, H2, 1,3-dichloro-6,7,8,9,10,12-hexahydroazepino[2,1-b]quinazoline]",pIC50,Electric Eel AChE; [6],6.80
same,pIC50,[2],6.76
same,pIC50,[1]; [5],7.40
"Clc1ccc(Cl)c2c1CN1CCCCCC1=N2 [1,4-DiCl, H2, 1,4-dichloro-6,7,8,9,10,12-hexahydroazepino[2,1-b]quinazoline]",pIC50,Electric Eel AChE; [6],7.00
same,pIC50,[2],4.78
same,pIC50,[1]; [5],6.20
"Cc1c(Cl)ccc2c1CN1CCCCCC1=N2 [1-CH3,2-Cl, H2, 2-chloro-1-methyl-6,7,8,9,10,12-hexahydroazepino[2,1-b]quinazoline]",pIC50,[1]; [5],5.40
"Clc1cccc2c1CN1CCCCCC1=N2 [1-Cl, H2, 1-chloro-6,7,8,9,10,12-hexahydroazepino[2,1-b]quinazoline]",pIC50,[1]; [5],5.77
"Fc1cccc2c1CN1CCCCCC1=N2 [1-F, H2, 1-fluoro-6,7,8,9,10,12-hexahydroazepino[2,1-b]quinazoline]",pIC50,[1]; [5],5.72
"Clc1cc2c(cc1Cl)N=C1CCCCCN1C2 [2,3-DiCl, H2, 2,3-dichloro-6,7,8,9,10,12-hexahydroazepino[2,1-b]quinazoline]",pIC50,Electric Eel AChE; [6],6.40
same,pIC50,[2],4.75
same,pIC50,[1]; [5],5.60
"COc1cc2c(cc1OC)N=C1CCCCCN1C2 [2,3-DiOCH3, H2, 2,3-dimethoxy-6,7,8,9,10,12-hexahydroazepino[2,1-b]quinazoline]",pIC50,Electric Eel AChE; [6],6.40
same,pIC50,[1]; [5],5.05
"Cc1cc(C)c2c(c1)CN1CCCCCC1=N2 [2,4-DiCH3, H2, 2,4-dimethyl-6,7,8,9,10,12-hexahydroazepino[2,1-b]quinazoline]",pIC50,[1]; [5],6.05
"Clc1cc(Cl)c2c(c1)CN1CCCCCC1=N2 [2,4-DiCl, H2, 2,4-dichloro-6,7,8,9,10,12-hexahydroazepino[2,1-b]quinazoline]",pIC50,Electric Eel AChE; [6],6.60
same,pIC50,[2],5.42
same,pIC50,[1]; [5],7.20
"CCc1ccc2c(c1)CN1CCCCCC1=N2 [2-C2 H5, H2, 2-ethyl-6,7,8,9,10,12-hexahydroazepino[2,1-b]quinazoline]",pIC50,Electric Eel AChE; [6],6.00
same,pIC50,[1]; [5],5.60
"Cc1cc(Cl)c2c(c1)CN1CCCCCC1=N2 [2-CH3,4-Cl, H2, 4-chloro-2-methyl-6,7,8,9,10,12-hexahydroazepino[2,1-b]quinazoline]",pIC50,[1]; [5],6.20
"Cc1ccc2c(c1)CN1CCCCCC1=N2 [2-CH3, H2, 2-methyl-6,7,8,9,10,12-hexahydroazepino[2,1-b]quinazoline]",pIC50,[1]; [5],5.74
"N#Cc1ccc2c(c1)CN1CCCCCC1=N2 [2-CN, H2]",pIC50,Electric Eel AChE; [6],5.82
same,pIC50,[1]; [5],5.17
"Clc1ccc2c(c1)CN1CCCCCC1=N2 [2-Cl, H2, 2-chloro-6,7,8,9,10,12-hexahydroazepino[2,1-b]quinazoline]",pIC50,[1]; [5],6.30
"Fc1ccc2c(c1)CN1CCCCCC1=N2 [2-F, H2, 2-fluoro-6,7,8,9,10,12-hexahydroazepino[2,1-b]quinazoline]",pIC50,[1]; [5],5.70
"Clc1ccc2c(c1Cl)N=C1CCCCCN1C2 [3,4-DiCl, H2, 3,4-dichloro-6,7,8,9,10,12-hexahydroazepino[2,1-b]quinazoline]",pIC50,Electric Eel AChE; [6],6.40
same,pIC50,[2],4.62
same,pIC50,[1]; [5],5.82
"Cc1ccc2c(c1)N=C1CCCCCN1C2 [3-CH3, H2, 3-methyl-6,7,8,9,10,12-hexahydroazepino[2,1-b]quinazoline]",pIC50,[1]; [5],6.21
"Clc1ccc2c(c1)N=C1CCCCCN1C2 [3-Cl, H2, 3-chloro-6,7,8,9,10,12-hexahydroazepino[2,1-b]quinazoline]",pIC50,Electric Eel AChE; [6],6.70
same,pIC50,[2],5.72
"N=c1c2ccc(Cl)cc2nc2n1CCCCC2 [3-Cl, NH, 3-chloro-7,8,9,10-tetrahydroazepino[2,1-b]quinazolin-12(6H)-imine]",pIC50,Electric Eel AChE; [6],6.30
"O=c1c2ccc(Cl)cc2nc2n1CCCCC2 [3-Cl, O, 3-chloro-7,8,9,10-tetrahydroazepino[2,1-b]quinazolin-12(6H)-one]",pIC50,Electric Eel AChE; [6],4.68
"S=c1c2ccc(Cl)cc2nc2n1CCCCC2 [3-Cl, S, 3-Chloro-7,8,9,10-tetrahydroazepino[2,1-b]quinazolin-12(6H)-thione]",pIC50,Electric Eel AChE; [6],4.80
"Fc1ccc2c(c1)N=C1CCCCCN1C2 [3-F, H2, 3-fluoro-6,7,8,9,10,12-hexahydroazepino[2,1-b]quinazoline]",pIC50,Electric Eel AChE; [6],6.22
same,pIC50,[1]; [5],5.54
"COc1ccc2c(c1)N=C1CCCCCN1C2 [3-OCH3, H2]",pIC50,[1]; [5],5.55
"Cc1cccc2c1N=C1CCCCCN1C2 [4-CH3, H2, 4-methyl-6,7,8,9,10,12-hexahydroazepino[2,1-b]quinazoline]",pIC50,[1]; [5],5.22
"Clc1cccc2c1N=C1CCCCCN1C2 [4-Cl, H2, 4-chloro-6,7,8,9,10,12-hexahydroazepino[2,1-b]quinazoline]",pIC50,Electric Eel AChE; [6],6.20
same,pIC50,[1]; [5],5.82
"Fc1cccc2c1N=C1CCCCCN1C2 [4-F, H2, 4-fluoro-6,7,8,9,10,12-hexahydroazepino[2,1-b]quinazoline]",pIC50,Electric Eel AChE; [6],5.82
same,pIC50,[1]; [5],5.80
"c1ccc2c(c1)CN1CCCCCC1=N2 [H, H2]",pIC50,Electric Eel AChE; [6],6.21
same,pIC50,[2],4.80
same,pIC50,[1]; [5],5.72
